# Patent US20050163731A1, “Skin depigmenting compositions comprising adapalene and at least one depigmenting active agent” (GALDERMA RESEARCH & DEVELOPMENT, S.N.C., priority 2002, published 2005)
# Tests used:
# [1] = system: natural pigmentation of the tail of SKH HR2 mice; test: Depigmenting activity on natural pigmentation, tail of non-irradiated SKH HR2 mice (clinical pigmentation score); type: in vivo; conditions: non-irradiated SKH HR2 mouse tail, hydroquinone 3%, adapalene 0.1% in acetone, topical, 5 days per week for 8 weeks, score 0 to -4
# Protocol: The depigmenting activity is measured on the natural pigmentation after application of the test product to the tail of non-irradiated animals.
# The treatment is carried out for 5 days per week for 8 weeks. […] On the days for irradiation, the treatment is applied after irradiation.
# The evaluation is made by different clinical observations: once per week before irradiation, the pigmentation is evaluated by virtue of a score on a scale from 0 to 4. The distribution of the scores is the following: • −0: natural pigmentation • depigmentation scale: scores −1 to −4 • −1: light depigmentation • −2: moderate depigmentation • −3: marked depigmentation • −4: total depigmentation • pigmentation scale: scores 1 to 4 • 1: light pigmentation • 2: moderate pigmentation • 3: marked pigmentation • 4: intense pigmentation
# [2] = system: UV-induced pigmentation of the tail of SKH HR2 mice; conditions: SKH HR2 mouse tail irradiated with UV-B 90 mJ/cm^2 3 times per week for 8 weeks; hydroquinone 3%, adapalene 0.1% topical; score 1 to 4
# Protocol: The depigmenting activity is measured on the natural pigmentation after application of the test product to the tail of non-irradiated animals. The anti-pigmenting activity is measured by the inhibition of the induction of the UV-induced pigmentation: the test product is applied to the tail of animals irradiated with UV-B. The treatment is carried out for 5 days per week for 8 weeks. […] On the days for irradiation, the treatment is applied after irradiation. The animals are irradiated 3 times per week for 8 weeks (Monday, Wednesday, Friday) at the dose of 90 mJ/cm^2 of UV-B. The evaluation is made by different clinical observations: once per week before irradiation, the pigmentation is evaluated by virtue of a score on a scale from 0 to 4. The distribution of the scores is the following: • −0: natural pigmentation • depigmentation scale: scores −1 to −4 • −1: light depigmentation • −2: moderate depigmentation • −3: marked depigmentation • −4: total depigmentation • pigmentation scale: scores 1 to 4 • 1: light pigmentation • 2: moderate pigmentation • 3: marked pigmentation • 4: intense pigmentation
SMILES,Depigmenting activity (effect on natural pigmentation) [1],Depigmenting activity (effect on natural pigmentation) ([1]; listed as adapalene),Anti-pigmenting activity (inhibition of UV-B-induced pigmentation) [2]
"COc1ccc(-c2ccc3cc(C(=O)O)ccc3c2)cc1C12CC3CC(CC(C3)C1)C2 [Adapalene, 6-[3-(1-adamantyl)-4-methoxyphenyl]-2-naphthanoic acid]",does not modify the natural pigmentation,no depigmenting activity,
Oc1ccc(O)cc1 [hydroquinone],statistically significant depigmentation at the end of the study,,anti-pigmenting effect at the 6th and at the 7th week (D50) which becomes less marked at the end of the study
